Data on 25 compounds can be found in patent publication US9701689B2, “Substituted pyridines and pyridazines as CCR10 receptor inhibitors” (KYOWA HAKKO KIRIN CO., LTD., priority 2012, dated 2017).

The experiment deals with T1, human CCR10 (Homo sapiens, UniProt P46092).
T1 construct: expressed in transfected cells; host or cells: KJMGER8 cells (Namalwa cell-derived line), beta-estradiol-induced; hCCR10G16 cells
T1 sequence (P46092 1-362): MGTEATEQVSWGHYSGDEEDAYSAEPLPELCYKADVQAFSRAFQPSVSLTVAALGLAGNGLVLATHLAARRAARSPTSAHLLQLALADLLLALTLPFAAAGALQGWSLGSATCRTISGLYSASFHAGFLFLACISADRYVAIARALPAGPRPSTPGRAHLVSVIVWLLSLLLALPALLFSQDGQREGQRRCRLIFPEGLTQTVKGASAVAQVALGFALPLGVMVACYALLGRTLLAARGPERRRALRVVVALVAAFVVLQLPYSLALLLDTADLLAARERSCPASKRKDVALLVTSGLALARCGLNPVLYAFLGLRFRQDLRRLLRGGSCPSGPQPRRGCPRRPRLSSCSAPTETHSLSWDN
Put plainly: CCR10 antagonistic effect: calcium assay of human CCR10 (CTACK-induced increase of intracellular calcium in hCCR10G16 cells). Type of experiment: cell-based. The following applies: at a concentration of not more than 1000 nmol/L; human CCR10-expressing hCCR10G16 cells, 300 nmol/L CTACK added; read-out: inhibition of increase in the calcium ion concentration. An outline of the steps: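 KJMGER8-derived hCCR10G16 cells (CCR10 plus Gα16, induced 24 h with 10 nmol/L β-estradiol), Fluo-3 loaded, preincubated with compound 30 min at 37 °C. Stimulated with CTACK (300 nmol/L solution before addition); calcium read ~5 min by FDSS, max−min fluorescence; % inhibition vs control.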
(A change in cytosolic calcium serves as a functional read-out for many receptors and channels.)

As for `Cc1cc(F)ccc1Nc1cc(S(=O)(=O)NCC(=O)N2CCOCC2)ncc1C(=O)N1CCC(c2ccc(F)cc2)CC1` [Compound 130, 4-(4-fluoro-2-methylphenylamino)-5-[4-(4-fluorophenyl)piperidine-1-carbonyl]-N-(2-morpholino-2-oxoethyl)pyridine-2-sulfonamide], the inhibition at up to 1 µM is not below 50%.
Then `CC(=O)CNS(=O)(=O)c1cc(Nc2ccc(F)cc2C)c(C(=O)N2CCC(c3ccc(F)cc3)CC2)cn1` [Compound 131, 4-(4-fluoro-2-methylphenylamino)-5-[4-(4-fluorophenyl)piperidine-1-carbonyl]-N-(2-oxopropyl)pyridine-2-sulfonamide], with not below 50%; and `Cc1cnc(CNS(=O)(=O)c2cc(Nc3ccc(F)cc3C)c(C(=O)N3CCC(c4ccc(F)cc4)CC3)cn2)cn1` [Compound 134, 4-(4-fluoro-2-methylphenylamino)-5-[4-(4-fluorophenyl)piperidine-1-carbonyl]-N-[(5-methylpyrazin-2-yl)methyl]pyridine-2-sulfonamide], with not below 50%; and `Cc1cc(F)ccc1Nc1cc(S(=O)(=O)NCC#N)ncc1C(=O)N1CCC(c2ccc(F)cc2)CC1` [Compound 135, N-(cyanomethyl)-4-(4-fluoro-2-methylphenylamino)-5-[4-(4-fluorophenyl)piperidine-1-carbonyl]pyridine-2-sulfonamide], with not below 50%.
The figure for `CC(=O)NC1CCN(S(=O)(=O)c2cc(Nc3ccc(F)cc3C)c(C(=O)N3CCC(c4ccc(F)cc4)CC3)cn2)CC1` [Compound 136, N-{1-{4-(4-fluoro-2-methylphenylamino)-5-[4-(4-fluorophenyl)piperidine-1-carbonyl]pyridin-2-ylsulfonyl}piperidin-4-yl}acetamide] is not below 50%; for `Cc1cc(F)ccc1Nc1cc(S(=O)(=O)N2CCC(C(N)=O)CC2)ncc1C(=O)N1CCC(c2ccc(F)cc2)CC1` [Compound 138, 1-{4-(4-fluoro-2-methylphenylamino)-5-[4-(4-fluorophenyl)piperidine-1-carbonyl]pyridin-2-ylsulfonyl}piperidine-4-carboxamide] it is not below 50%.
Regarding `CNC(=O)[C@@H]1C[C@@H](O)CN1S(=O)(=O)c1cc(Nc2ccc(F)cc2C)c(C(=O)N2CCC(c3ccc(F)cc3)CC2)cn1` [Compound 141, (2S,4R)-1-{4-(4-fluoro-2-methylphenylamino)-5-[4-(4-fluorophenyl)piperidine-1-carbonyl]pyridin-2-ylsulfonyl}-4-hydroxy-N-methylpyrrolidine-2-carboxamide], the inhibition at up to 1 µM is not below 50%.
Consider `Cc1cc(F)ccc1Nc1cc(S(=O)(=O)NC2CCNC2=O)ncc1C(=O)N1CCC(c2ccc(F)cc2)CC1` (stereo not shown) [Compound 142, 4-(4-fluoro-2-methylphenylamino)-5-[4-(4-fluorophenyl)piperidine-1-carbonyl]-N-(2-oxopyrrolidin-3-yl)pyridine-2-sulfonamide], for which the inhibition at up to 1 µM is not below 50%.
Then `Cc1cc(F)ccc1Nc1cc(S(=O)(=O)N2CCOC2=O)ncc1C(=O)N1CCC(c2ccc(F)cc2)CC1` [Compound 143, 3-{4-(4-fluoro-2-methylphenylamino)-5-[4-(4-fluorophenyl)piperidine-1-carbonyl]pyridin-2-ylsulfonyl}oxazolidin-2-one], with not below 50%; and `Cc1cc(F)ccc1Nc1cc(S(=O)(=O)N2CCNC2=O)ncc1C(=O)N1CCC(c2ccc(F)cc2)CC1` [Compound 144, 1-{4-(4-fluoro-2-methylphenylamino)-5-[4-(4-fluorophenyl)piperidine-1-carbonyl]pyridin-2-ylsulfonyl}imidazolidin-2-one], with not below 50%.
The figure for `Cc1cc(F)ccc1Nc1cc(S(=O)(=O)Nc2ncccn2)ncc1C(=O)N1CCC(c2ccc(F)cc2)CC1` [Compound 145, 4-(4-fluoro-2-methylphenylamino)-5-[4-(4-fluorophenyl)piperidine-1-carbonyl]-N-(pyrimidin-2-yl)pyridine-2-sulfonamide] is not below 50%; for `Cc1cc(F)ccc1Nc1cc(S(=O)(=O)Nc2ccccn2)ncc1C(=O)N1CCC(c2ccc(F)cc2)CC1` [Compound 146, 4-(4-fluoro-2-methylphenylamino)-5-[4-(4-fluorophenyl)piperidine-1-carbonyl]-N-(pyridin-2-yl)pyridine-2-sulfonamide] it is not below 50%.
Then `Cc1cc(F)ccc1Nc1cc(S(=O)(=O)Nc2ncc(Br)cn2)ncc1C(=O)N1CCC(c2ccc(F)cc2)CC1` [Compound 147, N-(5-bromopyrimidin-2-yl)-4-(4-fluoro-2-methylphenylamino)-5-[4-(4-fluorophenyl)piperidine-1-carbonyl]pyridine-2-sulfonamide], with not below 50%; and `Cc1cc(F)ccc1Nc1cc(S(=O)(=O)Nc2nccs2)ncc1C(=O)N1CCC(c2ccc(F)cc2)CC1` [Compound 148, 4-(4-fluoro-2-methylphenylamino)-5-[4-(4-fluorophenyl)piperidine-1-carbonyl]-N-(thiazol-2-yl)pyridine-2-sulfonamide], with not below 50%.
As to `Cc1cc(F)ccc1Nc1cc(S(=O)(=O)Nc2nccn2C)ncc1C(=O)N1CCC(c2ccc(F)cc2)CC1` [Compound 149, 4-(4-fluoro-2-methylphenylamino)-5-[4-(4-fluorophenyl)piperidine-1-carbonyl]-N-(1-methyl-1H-imidazol-2-yl)pyridine-2-sulfonamide], the inhibition at up to 1 µM was not below 50%.
The figure for `CSc1nccc(NS(=O)(=O)c2cc(Nc3ccc(F)cc3C)c(C(=O)N3CCC(c4ccc(F)cc4)CC3)cn2)n1` [Compound 150, 4-(4-fluoro-2-methylphenylamino)-5-[4-(4-fluorophenyl)piperidine-1-carbonyl]-N-[2-(methylthio)pyrimidin-4-yl]pyridine-2-sulfonamide] is not below 50%; for `Cc1cc(F)ccc1Nc1cc(S(=O)(=O)Nc2c(C)noc2C)ncc1C(=O)N1CCC(c2ccc(F)cc2)CC1` [Compound 151, N-(3,5-dimethylisoxazol-4-yl)-4-(4-fluoro-2-methylphenylamino)-5-[4-(4-fluorophenyl)piperidine-1-carbonyl]pyridine-2-sulfonamide] it is not below 50%; for `Cc1cc(F)ccc1Nc1cc(S(=O)(=O)Nc2c(C)nn(C)c2C)ncc1C(=O)N1CCC(c2ccc(F)cc2)CC1` [Compound 152, 4-(4-fluoro-2-methylphenylamino)-5-[4-(4-fluorophenyl)piperidine-1-carbonyl]-N-(1,3,5-trimethyl-1H-pyrazol-4-yl)pyridine-2-sulfonamide] it is not below 50%.
Then `Cc1cc(F)ccc1Nc1cc(S(=O)(=O)Nc2ccn(C)n2)ncc1C(=O)N1CCC(c2ccc(F)cc2)CC1` [Compound 153, 4-(4-fluoro-2-methylphenylamino)-5-[4-(4-fluorophenyl)piperidine-1-carbonyl]-N-(1-methyl-1H-pyrazol-3-yl)pyridine-2-sulfonamide], with not below 50%.
Turning to `Cc1cc(F)ccc1Nc1cc(S(=O)(=O)Nc2cscn2)ncc1C(=O)N1CCC(c2ccc(F)cc2)CC1` [Compound 154, 4-(4-fluoro-2-methylphenylamino)-5-[4-(4-fluorophenyl)piperidine-1-carbonyl]-N-(thiazol-4-yl)pyridine-2-sulfonamide], the inhibition at up to 1 µM is not below 50%.
The figure for `Cc1cc(F)ccc1Nc1cc(S(=O)(=O)Nc2cncs2)ncc1C(=O)N1CCC(c2ccc(F)cc2)CC1` [Compound 155, 4-(4-fluoro-2-methylphenylamino)-5-[4-(4-fluorophenyl)piperidine-1-carbonyl]-N-(thiazol-5-yl)pyridine-2-sulfonamide] is not below 50%.
Then `Cc1cc(F)ccc1Nc1cc(S(=O)(=O)Nc2cncnc2)ncc1C(=O)N1CCC(c2ccc(F)cc2)CC1` [Compound 156, 4-(4-fluoro-2-methylphenylamino)-5-[4-(4-fluorophenyl)piperidine-1-carbonyl]-N-(pyrimidin-5-yl)pyridine-2-sulfonamide], with not below 50%; and `Cc1cc(NS(=O)(=O)c2cc(Nc3ccc(F)cc3C)c(C(=O)N3CCC(c4ccc(F)cc4)CC3)cn2)no1` [Compound 157, 4-(4-fluoro-2-methylphenylamino)-5-[4-(4-fluorophenyl)piperidine-1-carbonyl]-N-(5-methylisoxazol-3-yl)pyridine-2-sulfonamide], with not below 50%; and `Cc1cc(F)ccc1Nc1cc(S(=O)(=O)Nc2onc(C)c2C)ncc1C(=O)N1CCC(c2ccc(F)cc2)CC1` [Compound 158, N-(3,4-dimethylisoxazol-5-yl)-4-(4-fluoro-2-methylphenylamino)-5-[4-(4-fluorophenyl)piperidine-1-carbonyl]pyridine-2-sulfonamide], with not below 50%.
The figure for `Cc1cc(F)ccc1Nc1cc(S(=O)(=O)Nc2cc(C(C)(C)C)on2)ncc1C(=O)N1CCC(c2ccc(F)cc2)CC1` [Compound 159, N-(5-tert-butylisoxazol-3-yl)-4-(4-fluoro-2-methylphenylamino)-5-[4-(4-fluorophenyl)piperidine-1-carbonyl]pyridine-2-sulfonamide] is not below 50%.
